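Cultured in 96-well plates, cells were exposed to test compound for 48 hours across five concentrations. GI50 = concentration required for 50% inhibition of growth.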 The source made the active and inactive calls. Rule as the data show it: active = GI50 up to about 1.1 µM and inactive = higher.
Experiments:
Test in all cases: NCI tumour cell line growth inhibition, 48 h
A549 = test system: A549
ACHN = test system: ACHN
CCRF-CEM = test system: CCRF-CEM
HCC 2998 = test system: HCC 2998
HOP-62 = test system: HOP-62
HOP-92 = test system: HOP-92
KM12 = test system: KM12
MCF7 = test system: MCF7
MDA-MB-435 = test system: MDA-MB-435
NCI-H226 = test system: NCI-H226
OVCAR-5 = test system: OVCAR-5
PC-3 = test system: PC-3
SF-295 = test system: SF-295
SF-539 = test system: SF-539
SK-OV-3 = test system: SK-OV-3
SNB-75 = test system: SNB-75
SR = test system: SR
T47D = test system: T47D
UACC-257 = test system: UACC-257
UO-31 = test system: UO-31

Measured: GI50

CC1CN=C(Nc2ccccc2)S1 (stereo not given)
inactive: A549 > 100 µM | ACHN > 100 µM | CCRF-CEM > 100 µM | HCC 2998 > 100 µM | HOP-62 > 100 µM | HOP-92 > 100 µM | KM12 > 100 µM | MCF7 > 100 µM | MDA-MB-435 > 100 µM | NCI-H226 > 100 µM | OVCAR-5 > 100 µM | PC-3 > 100 µM | SF-295 > 100 µM | SF-539 > 100 µM | SK-OV-3 > 100 µM | SNB-75 > 100 µM | SR > 100 µM | T47D > 100 µM | UACC-257 > 100 µM | UO-31 56.8 µM

O=C(N/N=C\c1ccc([N+](=O)[O-])s1)c1ccncc1
inactive: A549 16.7 µM | ACHN 18.3 µM | CCRF-CEM 6.52 µM | HCC 2998 5.71 µM | HOP-62 14.4 µM | HOP-92 15.6 µM | KM12 10 µM | MCF7 3.02 µM | MDA-MB-435 18.4 µM | NCI-H226 5.15 µM | OVCAR-5 29.9 µM | PC-3 11.6 µM | SF-295 16.4 µM | SF-539 6.28 µM | SK-OV-3 38.5 µM | SNB-75 19.4 µM | SR 5.65 µM | T47D 21.2 µM | UACC-257 14.6 µM | UO-31 17.2 µM

C=C1CC2(C[C@@H](c3ccccc3)O[C@@H](c3ccccc3)C2)OC1=O (stereo not given in full)
inactive: A549 5.89 µM | ACHN 2.88 µM | CCRF-CEM 1.71 µM | HCC 2998 6.7 µM | HOP-62 14.4 µM | HOP-92 5.22 µM | KM12 4.39 µM | MCF7 2.13 µM | MDA-MB-435 2.99 µM | NCI-H226 16 µM | OVCAR-5 13.3 µM | PC-3 3.5 µM | SF-295 13.6 µM | SF-539 1.92 µM | SK-OV-3 14.5 µM | SNB-75 4.65 µM | SR 2.3 µM | T47D 1.85 µM | UACC-257 3.35 µM | UO-31 6.24 µM

CCCC(=O)N1CCN(c2ccc3c(c2)OC(C)O3)CC1 (stereo not given)
inactive: A549 > 100 µM | ACHN > 100 µM | CCRF-CEM > 100 µM | HCC 2998 > 100 µM | HOP-62 > 100 µM | HOP-92 > 100 µM | KM12 > 100 µM | MCF7 > 100 µM | MDA-MB-435 > 100 µM | NCI-H226 > 100 µM | OVCAR-5 > 100 µM | PC-3 > 100 µM | SF-295 > 100 µM | SF-539 > 100 µM | SK-OV-3 > 100 µM | SNB-75 15.4 µM | SR > 100 µM | T47D > 100 µM | UACC-257 > 100 µM | UO-31 > 100 µM

Cc1ccc(/N=N/c2ccc(O)c(CN(C)C)c2)cc1C
inactive: A549 34.7 µM | ACHN 17.6 µM | CCRF-CEM 24 µM | HCC 2998 16.4 µM | HOP-62 15.5 µM | HOP-92 26.8 µM | KM12 16.9 µM | MCF7 35.3 µM | MDA-MB-435 18.7 µM | NCI-H226 26.9 µM | OVCAR-5 31.8 µM | PC-3 40.9 µM | SF-295 40.7 µM | SF-539 19.5 µM | SK-OV-3 45 µM | SNB-75 21.9 µM | SR 27.2 µM | T47D 14 µM | UACC-257 23.1 µM | UO-31 8.3 µM

Source: ChEMBL document CHEMBL1201862, “PubChem BioAssay data set” (2004)
